Where two headings read alike, the source gives them in different places.

Data set [1] is described as follows: Adsorbent study: reduction of 3NOP concentration in solution (HPLC 230 nm). To be noted: 0.2 g of adsorbent in 10 mL of 1% 3NOP/H2O; 24 h; control 8.258 mM.
Experimental: (§1) The solution was then placed in an ultrasonic bath for ˜4 hr and then allowed to equilibrate over 24 h.
The conditions of data set [2]: buffer, 24 h.
Experimental: as §1
Data set [3] can be described thus: 3NOP pH and temperature stability (HPLC). To be noted: 1-month time period, 4-30 C, pH 4-10. It counts as physicochemical. From the text:
3NOP pH and Temperature Stability: Confirmed via HPLC over a 1-month time period at temperature between 4-30 C and pH 4-10.

Data set [4] relates to methane production. Conditions: cited from earlier work.
Data set [5] is described as follows: 3NOP volatility (mass loss in open vial). It counts as physicochemical. Conditions: 500 mg in 5 dram vial open to air, ˜18-24 C, 15-30% RH, 6 days. How it is done: 3NOP Volatility: 500 mg of 3NOP in a 5 dram vial was left open to air at ˜18-24 C at 15-30% RH over the course of 6 days. Average mass loss is ˜0.25% per day.
Data set [6] has as its system Mbb. ruminantium, Ms. mazei, and Mm. mobile. Conditions: cited from earlier work.

With `O=S(=O)([O-])[O-].[Cu+2]` [Copper Sulfate], the “3NOP concentration remaining in solution” value in data set [1] came to 7.814 mM.

With Cyclodextrin, the “3NOP concentration remaining in solution” value in data set [1] is reported as 7.676 mM.

For the molecule `O=C([O-])CC(O)(CC(=O)[O-])C(=O)[O-].[Bi+3]` [Bismuth Citrate], the “3NOP concentration remaining in solution” value in data set [1] was found to be 8.072 mM.

On to `NCCCC[C@H](N)C(=O)O` [Lysine], for which the “3NOP concentration remaining in solution” value in data set [2] (50 mg/mL) came to 18.583 mM.

`O=[N+]([O-])OCCCO` [Group 3NOP, 3-Nitrooxypropanol]: the “3NOP pH and Temperature Stability” value in data set [3] is “Confirmed”. The “maximum methane suppression amount” value in data set [4] (60 mg/kg of feed dry matter) was 26%/day (Melgar et al., 2020). Also, the “3NOP Volatility: average mass loss” value in data set [5] is roughly 0.25 % per day.

With `O=[N+]([O-])O` [Nitrate], the “maximum methane suppression amount” value in data set [4] (5 mM) was 5 mM; 43.26% Lin rt al., 2017); in data set [4] (5 mmol/L), 5 mmol/L; 32.92%; in data set [4] (20 mg/g dry matter), 20 mg/g dry matter; 21%.

On to `N=C(N)NCCC[C@H](N)C(=O)O` [Arginine], for which the “3NOP concentration remaining in solution” value in data set [2] (50 mg/mL) is 19.782 mM.

In the case of `O=c1[nH]c(=O)c2nccnc2[nH]1` [lumazin, 2,4-pteridinedione], the “CH4 production by Mbb. ruminantium, Ms. mazei, and Mm. mobile” value in data set [6] (dose-dependent from 0.06 to 0.24 mmol/L) is “significantly decreased”.

Regarding `O=S(=O)([O-])[O-].O=S(=O)([O-])[O-].O=S(=O)([O-])[O-].[Bi+3].[Bi+3]` [Bismuth Sulfate], the “3NOP concentration remaining in solution” value in data set [1] was 8.079 mM.

`NC(=O)CC[C@H](N)C(=O)O` [Glutamine]: the “3NOP concentration remaining in solution” value in data set [2] (20 mg/mL) was 7.588 mM.

For `O=S(=O)(O)CCCBr` [BPS, 3-bromopropanesulfonate], the “sensitivity of methanogens in pure cultures” value in data set [6] (up to 250 μmol/L, all three species) is given as “resistant”.

Values taken from patent publication US20250222082A1, “PROTEIN AND PEPTIDE VACCINES TARGETING METHANOGENS” (Arkea Bio Corp., priority 2024, published 2025).
